Holding throughout (test): radiometric filter-binding kinase assay, Kinase HotSpot
Common to all, as to conditions: compound 0.5 µM; ATP 10 µM

For assay [1], the system named is FLT4 (human), P35916 [Q890H].
Assay [2] deals with PRKCQ (human), Q04759 [P330L].
Assay [3] concerns MKNK1 (human), Q9BUB5 [T385D; 165-205 del].
Assay [4] deals with MAP2K6 (human), P52564 [S207E/T211E].
Chain of MAP2K6 (human), P52564 [S207E/T211E] (P52564 whole entry S207E/T211E, looked up): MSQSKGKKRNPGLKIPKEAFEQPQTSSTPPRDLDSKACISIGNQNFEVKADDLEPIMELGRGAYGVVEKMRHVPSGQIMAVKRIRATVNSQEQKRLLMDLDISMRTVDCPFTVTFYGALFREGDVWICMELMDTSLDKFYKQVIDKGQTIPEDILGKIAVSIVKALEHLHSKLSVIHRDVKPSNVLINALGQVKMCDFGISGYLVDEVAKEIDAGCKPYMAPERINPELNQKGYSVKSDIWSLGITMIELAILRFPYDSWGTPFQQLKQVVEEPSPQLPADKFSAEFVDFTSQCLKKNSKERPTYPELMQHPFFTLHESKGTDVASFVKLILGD

Chain of PRKCQ (human), Q04759 [P330L] (Q04759 whole entry P330L, looked up): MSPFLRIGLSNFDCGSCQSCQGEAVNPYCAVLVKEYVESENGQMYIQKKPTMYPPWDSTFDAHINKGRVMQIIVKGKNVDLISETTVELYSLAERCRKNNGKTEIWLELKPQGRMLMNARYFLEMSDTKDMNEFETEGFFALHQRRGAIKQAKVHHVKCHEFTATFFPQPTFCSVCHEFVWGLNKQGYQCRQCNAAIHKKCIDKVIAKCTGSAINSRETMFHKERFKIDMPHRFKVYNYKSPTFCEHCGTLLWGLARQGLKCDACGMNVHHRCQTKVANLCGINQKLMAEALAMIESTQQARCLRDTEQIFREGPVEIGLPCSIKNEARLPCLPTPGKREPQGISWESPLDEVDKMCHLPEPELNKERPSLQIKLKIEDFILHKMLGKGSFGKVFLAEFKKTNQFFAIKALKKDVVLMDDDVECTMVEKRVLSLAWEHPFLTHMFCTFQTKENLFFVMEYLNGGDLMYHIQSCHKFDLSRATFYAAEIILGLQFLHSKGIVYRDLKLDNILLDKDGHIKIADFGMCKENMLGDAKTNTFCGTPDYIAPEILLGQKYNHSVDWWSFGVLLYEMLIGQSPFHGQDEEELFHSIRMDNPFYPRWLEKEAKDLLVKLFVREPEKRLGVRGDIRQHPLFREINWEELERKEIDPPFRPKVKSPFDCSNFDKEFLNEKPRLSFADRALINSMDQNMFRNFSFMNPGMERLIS
Chain of FLT4 (human), P35916 [Q890H] (P35916 whole entry, looked up, stated change not applied): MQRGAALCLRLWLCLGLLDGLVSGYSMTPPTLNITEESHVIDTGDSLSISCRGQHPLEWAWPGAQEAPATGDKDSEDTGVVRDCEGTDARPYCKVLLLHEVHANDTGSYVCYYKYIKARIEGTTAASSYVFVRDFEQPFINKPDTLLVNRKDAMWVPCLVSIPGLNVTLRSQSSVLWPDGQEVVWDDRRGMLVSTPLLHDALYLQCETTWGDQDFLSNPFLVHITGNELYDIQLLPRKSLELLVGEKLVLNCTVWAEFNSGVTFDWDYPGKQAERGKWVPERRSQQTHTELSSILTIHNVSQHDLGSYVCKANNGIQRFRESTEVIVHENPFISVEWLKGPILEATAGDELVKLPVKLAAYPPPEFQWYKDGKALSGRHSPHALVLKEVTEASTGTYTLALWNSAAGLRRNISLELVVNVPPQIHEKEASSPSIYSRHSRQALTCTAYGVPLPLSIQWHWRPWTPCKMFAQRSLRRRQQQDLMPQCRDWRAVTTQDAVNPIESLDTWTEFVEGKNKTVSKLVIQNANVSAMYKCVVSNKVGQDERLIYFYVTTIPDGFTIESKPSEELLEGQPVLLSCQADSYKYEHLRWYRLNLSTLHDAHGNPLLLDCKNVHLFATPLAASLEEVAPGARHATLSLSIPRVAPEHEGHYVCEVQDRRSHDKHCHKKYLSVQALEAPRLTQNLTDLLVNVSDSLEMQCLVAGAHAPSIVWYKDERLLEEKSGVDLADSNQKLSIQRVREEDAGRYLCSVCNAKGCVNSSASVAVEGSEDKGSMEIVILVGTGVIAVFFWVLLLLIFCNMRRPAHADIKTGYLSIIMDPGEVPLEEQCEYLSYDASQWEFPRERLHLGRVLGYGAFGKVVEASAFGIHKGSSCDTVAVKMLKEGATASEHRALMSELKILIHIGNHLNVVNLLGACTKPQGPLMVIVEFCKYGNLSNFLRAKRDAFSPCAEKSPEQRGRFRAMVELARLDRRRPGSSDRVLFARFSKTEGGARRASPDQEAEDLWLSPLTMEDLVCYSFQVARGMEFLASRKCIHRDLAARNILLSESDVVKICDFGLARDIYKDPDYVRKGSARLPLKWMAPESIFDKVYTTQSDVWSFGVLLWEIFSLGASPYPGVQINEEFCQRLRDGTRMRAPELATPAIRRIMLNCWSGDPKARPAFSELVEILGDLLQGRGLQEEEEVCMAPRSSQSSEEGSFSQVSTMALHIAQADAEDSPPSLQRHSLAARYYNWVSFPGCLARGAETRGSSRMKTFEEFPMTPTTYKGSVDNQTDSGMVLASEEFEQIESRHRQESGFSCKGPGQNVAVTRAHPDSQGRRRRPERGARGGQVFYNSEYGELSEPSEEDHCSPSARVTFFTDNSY
Chain of MKNK1 (human), Q9BUB5 [T385D; 165-205 del] (Q9BUB5 whole entry, looked up, stated change not applied): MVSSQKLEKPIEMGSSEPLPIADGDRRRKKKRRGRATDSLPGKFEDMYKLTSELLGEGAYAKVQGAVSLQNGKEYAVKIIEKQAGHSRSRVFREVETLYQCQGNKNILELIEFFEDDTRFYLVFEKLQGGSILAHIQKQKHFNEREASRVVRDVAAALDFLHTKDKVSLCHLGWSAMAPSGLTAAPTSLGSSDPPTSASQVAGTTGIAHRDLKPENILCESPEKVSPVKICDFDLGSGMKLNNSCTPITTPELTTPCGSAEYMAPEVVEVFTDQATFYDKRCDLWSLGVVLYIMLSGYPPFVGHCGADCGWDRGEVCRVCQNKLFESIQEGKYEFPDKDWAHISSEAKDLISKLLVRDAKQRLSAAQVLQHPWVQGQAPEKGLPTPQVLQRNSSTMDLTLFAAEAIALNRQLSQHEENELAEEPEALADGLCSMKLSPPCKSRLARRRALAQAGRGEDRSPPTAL

For orientation: residual activity means the signal under treatment as a percentage of the control signal. With `COc1ccc2c(c[n+](C)c3c4cc5c(cc4ccc23)OCO5)c1OC`, the residual activity in assay [1] came to 97.6%; in assay [2], 99.9%; in assay [3], 102%; in assay [4], 95%.
As for `Cn1nc2c3c(cccc31)C(=O)c1ccccc1-2`, the residual activity in assay [1] was 86.8%; in assay [2], 106%; in assay [3], 105%; in assay [4], 96.4%.
For the compound `O=C1NC(=O)C(c2c[nH]c3ccccc23)=C1c1c[nH]c2ccccc12`, the residual activity is 35.2% in assay [1], 33.8% in assay [2], 115% in assay [3] and 98% in assay [4].
For `Cn1sc(=O)n(Cc2ccccc2)c1=O`, in that order: 86.8%, 100%, 98.6% and 94.9%.
In the case of `CC(C)N(CCC(=O)c1ccc2ccccc2c1)Cc1ccccc1`, the residual activity is 94% in assay [1], 122% in assay [2], 105% in assay [3] and 93.2% in assay [4].
The like results for `CCN1/C(=C/C(C)=O)Sc2ccc(OC)cc21` were, in that order, 99.7%, 95.9%, 119% and 86.7%.
For `Cc1nc2cc3nc(-c4cccs4)cnc3cc2n1C`, in that order: 86.2%, 100%, 92.7% and 104%.
As to `CN([C@@H](Cc1ccc(OS(=O)(=O)c2cccc3cnccc23)cc1)C(=O)N1CCN(c2ccccc2)CC1)S(=O)(=O)c1cccc2cnccc12`, the residual activity in assay [1] amounted to 90.5%; in assay [2], 108%; in assay [3], 106%; in assay [4] it was 104%.
`NC(=O)c1ccc(N(C(N)=O)c2c(F)cccc2F)nc1-c1ccc(F)cc1F`: the residual activity in assay [1] came out at 97.5%; in assay [2], 85.1%; in assay [3], 91.4%; in assay [4] it was 96.5%.
As to `N#C/C(=C1/Nc2ccccc2S1)c1ccnc(NCCc2cccnc2)n1`, the residual activity turned out to be 86.1% in assay [1], 104% in assay [2], 90.2% in assay [3] and 92.5% in assay [4].
For `O=C1NC(=O)c2c1c1c3ccccc3[nH]c1c1[nH]c3cc(Br)ccc3c21`, in that order: 28%, 93.1%, 81.5% and 94.2%.
